For 15 molecules, IC50 and melting point results are on record in patent US6413938B1, “Benzimidazole derivatives for the treatment of viral infections” (The Regents of the University of Michigan, priority 1997, dated 2002).

pIC50: −log10 of the molar value.

The first series deals with HCMV strain AD169. Description: Human Cytomegalovirus Assay. The format is cell-based. Particulars: Human betaherpesvirus 5, 120 h; HCMV strain AD169 on MRC5 cell monolayers, 5 days, HCMV DNA by blotting and hybridization. The protocol: HCMV strain AD169 was grown on monolayers of human embryonic lung cells (MRC5 cells) in 96 well plates. After infection of the cells at a ratio of approximately 0.01 infectious virus particles per cell; the compounds to be tested were added to selected wells at six different concentrations, each in triplicate. The same concentrations of compounds were also applied to wells containing monolayers of uninfected cells in order to assess compound cytotoxicity. The plates were incubated for 5 days, and the minimum cytotoxic dose was estimated from microscopic examination. The IC50 for antiviral effect was estimated from measurements of HCMV DNA in each well by blotting and quantitative specific DNA hybridization, similar to the method of Gadler (Antimicrob. Agents Chemother. 1983, 24, 370-374).
`C[C@H]1O[C@@H](n2c(NC3CC3)nc3cc(Cl)c(Cl)cc32)[C@H](O)[C@@H]1O` [Example 59, 5,6-Dichloro-1-(5-deoxy-beta-D-ribofuranosyl)-N-(cyclopropyl)-1H-benzimidazol-2-amine]: the pIC50 was 5.96. Still for that read-out and setting: in the case of `CC(C)Nc1nc2ccc(Cl)cc2n1[C@@H]1O[C@H](C)[C@@H](O)[C@H]1O` [Example 50, 6-Chloro-1-(5-deoxy-β-D-ribofuranosyl)-N-(1-methylethyl)-1H-benzimidazol-2-amine] it was 5.15. Consider `CC(C)Nc1nc2c(Cl)c(Cl)ccc2n1[C@@H]1O[C@H](C)[C@@H](O)[C@H]1O` [Example 12, 4,5-Dichloro-1-(5deoxy-beta-D-ribofuranosyl)-N-(1-methylethyl)-1H-benzimidazol-2-amine], for which the pIC50 was 5.46. With `CC(C)Nc1nc2c(Cl)cc(Cl)cc2n1[C@@H]1O[C@H](C)[C@@H](O)[C@H]1O` [Example 9, 4,6-Dichloro-1-(5-deoxy-beta-D-ribofuranosyl)-N-(1-methylethyl)-1H-benzimidazol-2-amine], the pIC50 is 5.16. Same read-out and setting: in the case of `CC(C)Nc1nc2cc(C(F)(F)F)ccc2n1[C@@H]1O[C@H](C)[C@@H](O)[C@H]1O` [Example 44, 5-Trifluoromethyl-1-(5-Deoxy-beta-D-ribofuranosyl)-N-(1-methylethyl)-1H-benzimidazol-2-amine] it was 5.15; in that of `CC(C)Nc1nc2ccc(C(F)(F)F)cc2n1[C@@H]1O[C@H](C)[C@@H](O)[C@H]1O` [Example 46, 6-trifluoromethyl-1-(5-Deoxy-beta-D-ribofuranosyl)-N-(1-methylethyl)-1H-benzimidazol-2-amine], 5.21.

Test system in the next series: not given
Experiment: not given
Conditions: not given
`CC(=O)O[C@@H]1[C@H](OC(C)=O)[C@@H](C)O[C@H]1n1c(Br)nc2c(Br)c(Cl)c(Cl)cc21` [Example 71, 2,4-Dibromo-5,6-dichloro-1-(2,3-di-O-acetyl-5-deoxy-beta-D-ribofuranosyl)-1H-benzimidazole] registered a melting point of 152 to 154 °C. The molecule `CC(C)Nc1nc2cc(F)c(F)c(F)c2n1[C@@H]1O[C@H](C)[C@@H](O)[C@H]1O` [Example 20, 5,6,7-Trifluoro-1-(5-deoxy-beta-D-ribofuranosyl)-N-(1-methylethyl)1H-benzimidazol-2-amine] displayed a melting point of 175 to 178 °C. Still for that read-out and setting: for `C[C@H]1O[C@H](n2c(Cl)nc3cc(Cl)c(Cl)cc32)[C@@H](O)[C@H]1O` [Example 72, 2,5,6-Trichloro-1-(5-deoxy-α-D-lyxofuranosyl)1H-benzimidazole] the value was 120 to 122 °C; for `C[C@H]1O[C@@H](n2c(Br)nc3cc(Cl)c(Cl)cc32)[C@H](O)[C@@H]1O` [Example 73, 2-Bromo-5,6-dichloro-1-(5-deoxy-β-D-ribofuranosyl)benzimidazole], 145 to 148 °C; for `CC(=O)O[C@@H]1[C@H](OC(C)=O)[C@@H](C)O[C@H]1n1c(Cl)nc2c(Cl)c(Cl)c(Cl)cc21` [Example 68, 2,4,5,6-Tetrachloro-1-(2,3-di-O-acetyl-5-deoxy-beta-D-ribofuranosyl)-1H-benzimidazole], 126 to 127 °C. For `CC(=O)O[C@@H]1[C@H](OC(C)=O)[C@@H](C)O[C@H]1n1c(Br)nc2c(Cl)c(Cl)c(Cl)cc21` [Example 69, 2-Bromo4,5,6-trichloro-1-(2,3-di-O-acetyl-5-deoxy-beta-D-ribofuranosyl)-1H-benzimidazole], the melting point lay in the range of 160 to 162 °C. `CC(C)Nc1nc2c(F)c(F)c(F)cc2n1[C@@H]1O[C@H](C)[C@@H](O)[C@H]1O` [Example 19, 4,5,6-Trifluoro-1-(5-deoxy-beta-D-ribofuranosyl)-N-(1-methylethyl)-1H-benzimidazol-2-amine] displayed a melting point of 148 to 151 °C. For `CC(=O)O[C@@H]1[C@H](OC(C)=O)[C@@H](C)O[C@H]1n1c(Cl)nc2c(Br)c(Cl)c(Cl)cc21` [Example 70, 4-Bromo-2,5,6-trichloro-1-(2,3-di-O-acetyl-5-deoxy-beta-D-ribofuranosyl)-1H-benzimidazole], the melting point lay in the range of 138 to 141 °C.

Consider `C[C@H]1O[C@@H](n2c(Br)nc3cc(Cl)c(Cl)cc32)[C@H](O)[C@@H]1O` (hydrate or solvate) [Example 4, 2-Bromo-5,6-dichloro-1-(5-deoxy-beta-D-ribofuranosyl)-1H-benzimidazole], for which the melting point lay within 133 to 135 °C.

Usually pIC50 stands for the IC50 on a negative log10 scale, so that one unit is a factor of ten. A low value points to a high IC50. Broadly, the melting point is the temperature of the solid-liquid transition.
